From patent publication US20250064773A1, “TARGETING ERO1 ALPHA WITH AURONE DERIVATIVES” (West Virginia University Board of Governors on behalf of …, priority 2021, published 2025)

Test system: normal lung epithelial cell line Beas-2B
Experiment: MTT viability assay, Beas-2B
Format: cell-based
Settings: Homo sapiens, Normal Lung Epithelium
From the text: Cell Lines: PC-9 cell line used was obtained from Sigma Aldrich and grown in RPMI 1640 medium with 10% fetal bovine serum and 1% penicillin/streptomycin. HCC4006, U266, MM1.s, and Beas-2B cell lines were obtained from ATCC and cultured in either RPMI 1640 or DMEM with 10% fetal bovine serum and 1% penicillin/streptomycin. All cell lines were also checked for mycoplasma every six months and subjected to short tandem repeat (STR) analysis for cell line validation. CRISPR Cas9: CRISPR Guide RNA 2 targeting ERO1α and CRISPR Guide RNA 4 were purchased from Genscript in the pLentiCRISPR V2 plasmid containing puromycin/ampicillin selection marker. Lentivirus was made from HEK 293T cells by co-transfection with GuideRNA of interest, pVSVG, and pPAX2 plasmids. […] Plate was then read on the BioTek Cytation 5 at 530/590 nm. […] Plate was then read at 570 nm. Treated wells were all compared to DMSO control wells to calculate percent growth inhibition and the IC50 was calculated using GraphPad (log(inhibitor) vs growth inhibition). […] Images were then quantified using ImageJ. […] Cells were aliquoted at 1 million cells per PCR tube in PBS and heated in Bio-Rad T100 thermal cycler at indicated temperatures (RT, 46° C., 48° C., 50° C., 52° C., 54° C., 56°, 58° C., and 60° C.) for 3 minutes and aggregation temperature was determined by western blot analysis. […]

CN(C)c1ccc(/C=C2\Oc3cc(O)ccc3C2=O)cc1 [Compound T151742]
IC50: > 100 µM
